Target: integrin αvβ3 (Homo sapiens, UniProt P05106+P06756)
Test: Integrin αvβ3 assay (competition with vitronectin for binding to solid-phase integrin αvβ3)
Conditions: competition between human vitronectin and test substance for binding to integrin αvβ3 bound to a solid phase; only a ranking in words is given

## Cc1cn(CC(CC(=O)O)NC(=O)OCc2ccccc2)c(=O)nc1NCc1ccc(CNc2ccccn2)cc1.O=C(O)C(F)(F)F (stereo not shown) [Example I-54]
  IC50 values (concentration of the ligand at which 50% of the ligand is displaced): best result

## O=C(O)C(F)(F)F.O=C(O)CC(Cn1cc(C2CCOCC2)c(NCCC(=O)Nc2ncc[nH]2)nc1=O)NC(=O)OCc1ccccc1 (stereo not shown) [Example I-61, 2-[(3-{[1-(2-{[(Benzyloxy)carbonyl]amino}-3-carboxy-propyl)-2-oxo-5-tetrahydro-2H-pyran-4-yl-1,2-dihydropyrimidin-4-yl]amino}propanoyl)amino]-1H-imidazol-1-ium trifluoroacetate]
  IC50 values (concentration of the ligand at which 50% of the ligand is displaced): best result

## O=C(O)C(F)(F)F.O=C(O)CC(Cn1cc(-c2ccccc2)c(NCCC(=O)Nc2ncc[nH]2)nc1=O)NC(=O)OCc1ccccc1 (stereo not shown) [Example I-63, 2-[(3-{[1-(2-{[(Benzyloxy)carbonyl]amino}-3-carboxy-propyl)-2-oxo-5-phenyl-1,2-dihydropyrimidin-4-yl]amino}-propanoyl)amino]-1H-imidazol-1-ium trifluoroacetate]
  IC50 values (concentration of the ligand at which 50% of the ligand is displaced): best result

## CCCc1cn(C[C@H](NC(=O)OCc2ccccc2)C(=O)O)c(=O)nc1N1CCC(CNc2ccccn2)CC1.O=C(O)C(F)(F)F [Example I-64, 2-[({1-[1-((2S)-{[(Benzyloxy)carbonyl]amino}-2-carboxy-ethyl)-2-oxo-5-propyl-1,2-dihydropyrimidin-4-yl]-piperidin-4-yl}methyl)amino]pyridinium trifluoroacetate]
  IC50 values (concentration of the ligand at which 50% of the ligand is displaced): best result
